Test results published in patent US20130065964A1, “PERITONEAL DIALYSIS SOLUTION” (UNIVERSIDAD DE CASTILLA LA MANCHA, priority 2010, published 2013).

How the values were obtained:
Assay in all cases: Real-time RT-PCR in PMCs from dialysed rats
Format in all cases: in vivo, rat
[1] = test system: Collagen III; details: peritoneal cells from rats dialysed four weeks, aliskiren 0.1 or 1 mg/Kg, FIG. 18
Protocol: (§1) The rats were exposed daily for four weeks to carrier (saline serum), 1.5% PDF, 2.3% PDF or 4.5% PDF supplemented by carrier, 0.1 mg/Kg aliskiren or 1 mg/Kg aliskiren. The data is expressed as mean±SEM, n=6 rats per group. * p<0.05, compared to the group treated with carrier in the absence of aliskiren (carrier). # p<0.05, compared to their respective groups treated with PDFs in the absence of aliskiren.
(§2) For in vivo studies, 78 female rats of the Sprague-Dawley female strain weighing 200-240 g (Charles River Breeding Laboratories) were used: fifty-four rats were assigned to the group of animals which had been administered high-glucose peritoneal dialysis solutions (PDF), which were divided into three different subgroups with eighteen rats each which were administered, respectively, three PDFs having different glucose concentrations (Fresenius Medical Car, Bad Homburg, Germany). Additionally, eighteen rats were administered a carrier (saline serum) and another six rats were used as a control group (not dialysed). […]
(§3) At the end of the experimental period (four weeks), 30 ml of a commercial PDF with 2.3% glucose (Fresenius Medical Car, Bad Homburg, Germany) was administered intraperitoneally using a 22G needle. […] Their body weight was measured at the start and end of the experimental period. […]
(§4) The blood and dialysate samples were centrifuged and stored at −20° C. The concentrations of creatinine and glucose in the serum and dialysate were measured using enzymatic methods. The peritoneal transport of solutes was calculated, on one hand, as the glucose concentration in the dialysate 2 hours after the PET relative to the initial glucose concentration in the PDF (D2/D0 glucose) and, on the other, as the dialysate/plasma creatinine concentration ratio (D2/P2 creatinine) 2 h after the PET. […]
(§5) The RNA expression was evaluated by real-time RT-PCR in PMCs. […] RNA quality and concentration was evaluated by spectrophotometry (Infinite 200, Tecan, Salzburg, Austria) using 1 μl of the RNA sample. […]

[2] = test system: Bcl-2; details: peritoneal cells from rats dialysed four weeks, aliskiren 0.1 or 1 mg/Kg, FIG. 16
Protocol: as §1, §2, §3, §4, §5

[3] = test system: BAX; details: peritoneal cells from rats dialysed four weeks, aliskiren 0.1 or 1 mg/Kg, FIG. 15
Protocol: as §1, §2, §3, §4, §5

[4] = test system: p53; details: peritoneal cells from rats dialysed four weeks, aliskiren 0.1 or 1 mg/Kg, FIG. 14
Protocol: as §1, with “PDF supplemented by, 0.1 mg/Kg” for “PDF supplemented by carrier, 0.1 mg/Kg”, “of aliskiren. […]” for “of aliskiren.”
as §3, §4, §5

COCCCOc1cc(C[C@@H](C[C@H](N)[C@@H](O)C[C@H](C(=O)NCC(C)(C)C(N)=O)C(C)C)C(C)C)ccc1OC [aliskiren]
RNAm expression of collagen III [1]: increased
RNAm expression of anti-apoptotic protein Bcl-2 [2]: increased
RNAm expression of pro-apoptotic protein Bax [3]: reduced
RNAm expression of pro-apoptotic protein p53 [4]: reduced
